Experiments:
[1] = target: T1, human TGR5 (h-TGR5) (Homo sapiens, UniProt Q8TDU6); experiment: TGR5/CRE-Luciferiase Assay (HEK 293 hTGR5/CRE-Luc cells); type: cell-based; details: h-TGR5 CRE-Luc EC50, Table 1; read-out: CRE-Luc (EC50)
T1 construct: expressed in transfected cells
T1 sequence (Q8TDU6 1-330): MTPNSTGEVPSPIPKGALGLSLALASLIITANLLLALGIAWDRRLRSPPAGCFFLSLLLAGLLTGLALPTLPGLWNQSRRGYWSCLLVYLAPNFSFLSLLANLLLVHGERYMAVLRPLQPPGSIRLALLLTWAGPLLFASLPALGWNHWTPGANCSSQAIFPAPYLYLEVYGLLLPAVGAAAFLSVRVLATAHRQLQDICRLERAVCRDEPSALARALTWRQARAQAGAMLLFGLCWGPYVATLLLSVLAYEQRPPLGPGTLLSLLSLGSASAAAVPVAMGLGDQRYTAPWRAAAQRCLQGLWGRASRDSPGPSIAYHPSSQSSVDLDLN
How it was run: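 HEK293 cells stably carrying hTGR5 and a CRE-luciferase reporter were exposed to serially diluted compounds (diluted in DMEM with 5% DMSO) for 6 h. Cells were then lysed in luciferase buffer, luminescence was read, and EC50 values were derived from dose-response curves.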

[2] = target: T2, h-TGR5 (Homo sapiens, UniProt Q8TDU6); experiment: TGR5 cAMP Assay using Cisbio cAMP Dynamic2 htrf kit (hTGR5CRE-luc HEK 293 cells); type: cell-based; details: h-TGR5 cAMP EC50, Table 1; read-out: cAMP (EC50)
T2 construct: expressed in transfected cells
T2 sequence (Q8TDU6 1-330): T1 sequence (Q8TDU6 1-330)
How it was run: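 […], 4000 hTGR5CRE-luc HEK 293 cells per well, with 0.5 mM IBMX and d2-cAMP, were incubated 30 min at room temperature with compounds in 8-point half-log series, in quadruplicate.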

EC50 [1] [nM] | EC50 [2] [nM] | SMILES
100 to 1000 | 100 to 1000 | COc1cc(C(C)(C)c2cnc(SCc3ccc(S(=O)(=O)NC(=O)NCC(C)(C)O)cc3Cl)n2-c2ccc(F)cc2)ccc1Cl [3-chloro-4-({[5-{1-[4-chloro-3-(methyloxy)phenyl]-1-methylethyl}-1-(4-fluorophenyl)-1H-imidazol-2-yl]thio}methyl)-N-{[(2-hydroxy-2-methylpropyl)amino]carbonyl} benzenesulfonamide]
1000 to 10000 | 1000 to 10000 | COc1cc(C(C)(C)c2cnc(NCc3ccc(Cl)cc3F)n2-c2ccc(F)cc2)ccc1Cl [N-[(4-chloro-2-fluorophenyl)methyl]-5-{1-[4-chloro-3-(methyloxy)phenyl]-1-methylethyl}-1-(4-fluorophenyl)-1H-imidazol-2-amine]
100 to 1000 | 100 to 1000 | CC(C)(c1ccc(Cl)c(Cl)c1)c1cnc(SCc2ccc(-c3nnn[nH]3)cc2Cl)n1-c1ccc(F)cc1 [5-{3-chloro-4-[({5-[1-(3,4-dichlorophenyl)-1-methylethyl]-1-(4-fluorophenyl)-1H-imidazol-2-yl}thio)methyl]phenyl}-1H-tetrazole]
100 to 1000 | 100 to 1000 | CC(C)(c1ccc(Cl)c(Cl)c1)c1cnc(CCc2c(F)cccc2Cl)n1-c1ccc(F)cc1 [2-[2-(2-chloro-6-fluorophenyl)ethyl]-5-[1-(3,4-dichlorophenyl)-1-methylethyl]-1-(4-fluorophenyl)-1H-imidazole]
< 100 | < 100 | COc1cc(-n2c(C(C)(C)c3ccc(F)c(C#N)c3)cnc2SCc2ccc(S(=O)(=O)NC(=O)NC(C)C)cc2Cl)ccc1F [3-chloro-4-[({5-[1-(3-cyano-4-fluorophenyl)-1-methylethyl]-1-[4-fluoro-3-(methyloxy)phenyl]-1H-imidazol-2-yl}thio)methyl]-N-{[(1-methylethyl)amino]carbonyl}benzenesulfonamide]
< 100 | < 100 | COc1cc(-n2c(C(C)(C)c3ccc(Cl)c(Cl)c3)cnc2SCc2c(F)cc(C(=O)NCCC(=O)O)cc2F)ccc1F [N-({4-[({5-[1-(3,4-dichlorophenyl)-1-methylethyl]-1-[4-fluoro-3-(methyloxy)phenyl]-1H-imidazol-2-yl}thio)methyl]-3,5-difluorophenyl}carbonyl)-beta-alanine]
< 100 | 100 to 1000 | CC(=O)N1CCC(CSc2ncc(C(C)(C)c3ccc(Cl)c(Cl)c3)n2-c2ccc(F)cc2)CC1 [1-acetyl-4-[({5-[1-(3,4-dichlorophenyl)-1-methylethyl]-1-(4-fluorophenyl)-1H-imidazol-2-yl}thio)methyl]piperidine]
100 to 1000 | 100 to 1000 | CC(C)(c1ccc(Cl)c(Cl)c1)c1cnc(CCc2c(F)cc(C(=O)N[C@@H](CCCNC(=N)N)C(=O)O)cc2Cl)n1-c1ccc(F)cc1 [N-2-{[3-chloro-4-(2-{5-[1-(3,4-dichlorophenyl)-1-methylethyl]-1-(4-fluorophenyl)-1H-imidazol-2-yl}ethyl)-5-fluorophenyl]carbonyl}-L-arginine]
< 100 | < 100 | COc1cc(C(C)(C)c2cnc(SCc3c(F)cc(S(=O)(=O)NCCS(=O)(=O)O)cc3F)n2-c2ccc(F)cc2)ccc1Cl [2-({[4-({[5-{1-[4-chloro-3-(methyloxy)phenyl]-1-methylethyl}-1-(4-fluorophenyl)-1H-imidazol-2-yl]thio}methyl)-3,5-difluorophenyl]sulfonyl}amino)ethanesulfonic acid]

Reference: patent US8785488B2 (Exelixis Patent Company LLC, priority 2009, dated 2014)
